In PubChem BioAssay AID330 (DTP/NCI, 2004):
Toxic doses and inconclusive results are not listed. The calls were made as follows: active = survival T/C of 150% or more; inactive = T/C below 125% in these data.

Test system: P388 leukemia ip, CD2F1 mice, survival T/C
Assay: NCI In Vivo Anticancer Drug Screen. Data for tumor model P388 Leukemia (intraperitoneal) in CD2F1 (CDF1) mice
Conditions: endpoint: median survival time, higher = longer survival
Method in brief: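 Mice carrying the transplanted tumor received test compound or vehicle. Survival was recorded in each group, and the value is the treated-group measurement divided by that of the vehicle-treated control group.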

[1] = dose: 50.0 mg/kg/injection, schedule: Q01DX009 (ip), vehicle: saline with Tween-80
[2] = dose: 100.0 mg/kg/injection, schedule: Q01DX009 (ip), vehicle: saline with Tween-80
[3] = dose: 200.0 mg/kg/injection, schedule: Q01DX009 (ip), vehicle: saline with Tween-80
[4] = dose: 60.0 mg/kg/injection, schedule: Q01DX005 (ip), vehicle: saline with Tween-80
[5] = dose: 120.0 mg/kg/injection, schedule: Q01DX005 (ip), vehicle: saline with Tween-80
[6] = dose: 50.0 mg/kg/injection, schedule: Q01DX005 (ip), vehicle: Klucel (hydroxypropylcellulose) (HPC)
[7] = dose: 100.0 mg/kg/injection, schedule: Q01DX005 (ip), vehicle: Klucel (hydroxypropylcellulose) (HPC)
[8] = dose: 200.0 mg/kg/injection, schedule: Q01DX005 (ip), vehicle: Klucel (hydroxypropylcellulose) (HPC)
[9] = dose: 100.0 mg/kg/injection, schedule: Q01DX001 (ip), vehicle: saline with Tween-80

Measured: T/C

CC=C(/C(=C/C)c1ccc(O)cc1)c1ccc(O)cc1
inactive: dose: 66.0 mg/kg/injection, schedule: Q01DX009 (ip), vehicle: saline with Tween-80 120 % of control | dose: 100.0 mg/kg/injection, schedule: Q04DX003 (ip), vehicle: saline with Tween-80 100 % of control | dose: 200.0 mg/kg/injection, schedule: Q04DX003 (ip), vehicle: saline with Tween-80 100 % of control | dose: 400.0 mg/kg/injection, schedule: Q04DX003 (ip), vehicle: saline with Tween-80 90 % of control

COc1cc(C(=O)CCCC(=O)O)cc(OC)c1OC
inactive: [1] 96 % of control | [2] 92 % of control | [3] 88 % of control

CNC(=S)NNC1=NC(=S)NC1(C)C
inactive: dose: 50.0 mg/kg/injection, schedule: Q01DX009 (ip), vehicle: saline 98 % of control | dose: 100.0 mg/kg/injection, schedule: Q01DX009 (ip), vehicle: saline 103 % of control | dose: 200.0 mg/kg/injection, schedule: Q01DX009 (ip), vehicle: saline 101 % of control

CC1CC2Oc3ccc(Cl)cc3C(=O)N2O1 (centres undefined)
inactive: dose: 7.5 mg/kg/injection, schedule: Q01DX009 (ip), vehicle: saline 115 % of control | dose: 15.0 mg/kg/injection, schedule: Q01DX009 (ip), vehicle: saline 113 % of control | dose: 30.0 mg/kg/injection, schedule: Q01DX009 (ip), vehicle: saline 104 % of control

CC(=O)C1(C(C)=O)OC2c3ccccc3C=CN2C=C1C=O (centres undefined)
inactive: [4] 110 % of control | [5] 106 % of control | dose: 240.0 mg/kg/injection, schedule: Q01DX005 (ip), vehicle: saline with Tween-80 106 % of control

CNC(=O)c1cccc2ccc[n+](C)c12
inactive: dose: 0.62 mg/kg/injection, schedule: Q04DX002 (ip), vehicle: saline 107 % of control | dose: 1.25 mg/kg/injection, schedule: Q04DX002 (ip), vehicle: saline 109 % of control | dose: 2.5 mg/kg/injection, schedule: Q04DX002 (ip), vehicle: saline 108 % of control

COC(=O)C1CCCN1 (centres undefined)
inactive: dose: 60.0 mg/kg/injection, schedule: Q01DX005 (ip), vehicle: saline 105 % of control | dose: 120.0 mg/kg/injection, schedule: Q01DX005 (ip), vehicle: saline 111 % of control | dose: 240.0 mg/kg/injection, schedule: Q01DX005 (ip), vehicle: saline 104 % of control

NS(=O)(=O)c1cc([N+](=O)[O-])ccc1C(=O)OC1CCCCC1
inactive: [6] 104 % of control | [7] 113 % of control | [8] 92 % of control

Nc1cc2c(c[n+](CCCBr)c3ccccc23)c2ccccc12
inactive: dose: 1.56 mg/kg/injection, schedule: Q04DX003 (ip), vehicle: other 118 % of control | dose: 3.13 mg/kg/injection, schedule: Q04DX003 (ip), vehicle: other 118 % of control | dose: 6.25 mg/kg/injection, schedule: Q04DX003 (ip), vehicle: other 122 % of control

COC(=O)C(=O)c1c(C(=O)OC)nc2nnc(N)n2c1-c1cccc([N+](=O)[O-])c1
inactive: dose: 15.0 mg/kg/injection, schedule: Q01DX005 (ip), vehicle: saline with Tween-80 92 % of control | dose: 30.0 mg/kg/injection, schedule: Q01DX005 (ip), vehicle: saline with Tween-80 91 % of control | [4] 88 % of control | [5] 86 % of control

COCCOCn1cccc1Cc1ccc(OC)cc1
inactive: dose: 100.0 mg/kg/injection, schedule: Q01DX001 (ip), vehicle: distilled water + Tween-80 + alcohol 100 % of control | dose: 200.0 mg/kg/injection, schedule: Q01DX001 (ip), vehicle: distilled water + Tween-80 + alcohol 105 % of control | dose: 400.0 mg/kg/injection, schedule: Q01DX001 (ip), vehicle: distilled water + Tween-80 + alcohol 96 % of control

COc1ccc([N+](=O)[O-])c(O)c1OC
inactive: dose: 12.5 mg/kg/injection, schedule: Q01DX009 (ip), vehicle: other 94 % of control | dose: 25.0 mg/kg/injection, schedule: Q01DX009 (ip), vehicle: other 96 % of control | dose: 50.0 mg/kg/injection, schedule: Q01DX009 (ip), vehicle: other 97 % of control | dose: 100.0 mg/kg/injection, schedule: Q01DX009 (ip), vehicle: other 94 % of control | dose: 200.0 mg/kg/injection, schedule: Q01DX009 (ip), vehicle: other 96 % of control

CCCCCCC(O)CCC(O)CCCCCCCC(=O)O (centres undefined)
inactive: [1] 103 % of control | [2] 92 % of control | [3] 100 % of control

CCOC(=O)Nc1cc(NC/C(=N/O)c2ccc(C(F)(F)F)cc2)c([N+](=O)[O-])c(N)n1
inactive: dose: 50.0 mg/kg/injection, schedule: Q01DX001 (ip), vehicle: saline with Tween-80 94 % of control | [9] 96 % of control

ClC12CCC(c3ccccc3)(CC1)CC2
inactive: dose: 50.0 mg/kg/injection, schedule: Q01DX009 (ip), vehicle: Klucel (hydroxypropylcellulose) (HPC) 105 % of control | dose: 100.0 mg/kg/injection, schedule: Q01DX009 (ip), vehicle: Klucel (hydroxypropylcellulose) (HPC) 108 % of control | dose: 200.0 mg/kg/injection, schedule: Q01DX009 (ip), vehicle: Klucel (hydroxypropylcellulose) (HPC) 99 % of control

O=C1OC2(CCCC2)OC(=O)C1=Cc1ccc([N+](=O)[O-])s1
inactive: [1] 115 % of control | [2] 114 % of control

N=C(N)c1ccc(N=Nc2c(O)ccc3cc4c(N=Nc5ccc(C(=N)N)cc5)c(O)ccc4cc23)cc1
inactive: [6] 110 % of control | [7] 111 % of control | [8] 110 % of control

C=C1C(=O)O[C@H]2CCC[C@@]12C
inactive: [9] 103 % of control | dose: 200.0 mg/kg/injection, schedule: Q01DX001 (ip), vehicle: saline with Tween-80 106 % of control | dose: 400.0 mg/kg/injection, schedule: Q01DX001 (ip), vehicle: saline with Tween-80 113 % of control

O=C(O)C1=C(/C=C/Cl)CC1
inactive: [1] 102 % of control | [2] 96 % of control | [3] 99 % of control

C#CCOC(=O)Nc1nc2ccc(C)cc2s1
inactive: dose: 6.25 mg/kg/injection, schedule: Q01DX009 (ip), vehicle: Klucel (hydroxypropylcellulose) (HPC) 107 % of control | dose: 12.5 mg/kg/injection, schedule: Q01DX009 (ip), vehicle: Klucel (hydroxypropylcellulose) (HPC) 104 % of control | dose: 25.0 mg/kg/injection, schedule: Q01DX009 (ip), vehicle: Klucel (hydroxypropylcellulose) (HPC) 101 % of control

C=C1C(=O)C[C@H]2[C@H]3CC[C@H](C(=O)O)[C@]12CC3(C)C
inactive: dose: 7.5 mg/kg/injection, schedule: Q01DX005 (ip), vehicle: Klucel (hydroxypropylcellulose) (HPC) 119 % of control | dose: 15.0 mg/kg/injection, schedule: Q01DX005 (ip), vehicle: Klucel (hydroxypropylcellulose) (HPC) 113 % of control | dose: 30.0 mg/kg/injection, schedule: Q01DX005 (ip), vehicle: Klucel (hydroxypropylcellulose) (HPC) 119 % of control | dose: 31.5 mg/kg/injection, schedule: Q01DX005 (ip), vehicle: Klucel (hydroxypropylcellulose) (HPC) 111 % of control

Nc1cc(-c2ccc(Br)cc2)nn1-c1nnc(-c2ccccc2)c(-c2ccccc2)n1
inactive: dose: 50.0 mg/kg/injection, schedule: Q01DX005 (ip), vehicle: saline with Tween-80 101 % of control | dose: 100.0 mg/kg/injection, schedule: Q01DX005 (ip), vehicle: saline with Tween-80 93 % of control | dose: 200.0 mg/kg/injection, schedule: Q01DX005 (ip), vehicle: saline with Tween-80 92 % of control
